Experimental data as given in patent US20190269752A1, “Methods for the Prevention or Treatment of Epilepsy” (Duke University, priority 2018, published 2019).

Legend:
kindled WT mice = assay: Kindling model, treatment initiated after an evoked seizure in wild type mice; type: in vivo; conditions: 1NMPP1 treatment of WT animals (n=9) following Post-Kindling Seizure #1, p<0.01
From the text: All animal procedures were approved by the Institutional Animal Care and Use Committee (IACUC) at Duke University and conform to the National Institutes of Health and Duke University institutional guidelines for the care and use of experimental animals. Animals were maintained on a 12-hour light/dark cycle with food and water available ad libitum. Wild type (WT) adult (8-12 wk) C57/bl6 male mice were obtained from Charles River. TrkB^F616A mice were originally obtained from Dr. David Ginty (Chen et al. 2005) and backcrossed to the C57/bl6 line for at least seven generations. […]
(§1) Video and EEG recordings were analyzed by a blinded, trained observer who quantified behavioral seizure class and duration of both electrographic and behavioral seizure.
Experiments were performed as previously described (He et al. 2010, He et al. 2014). […] After a postoperative recovery period of at least 5 days, animals were connected to a Grass Stimulator and monitored by both video and EEG. The current required to evoke an electrographic seizure (electrographic seizure threshold [EST]) was determined by applying a 1 s train of 1 msec biphasic-rectangular pulses at 60 Hz beginning at 20 μA. Additional stimulations were given in 20 μA increments at 1 min intervals until an electrographic seizure was detected. […]

kindled TrkB^F616A mice [1] = assay: Kindling model, 1NMPP1 treatment in the absence of a preceding evoked seizure; type: in vivo; conditions: no preceding evoked seizure, seizure evoked six days after cessation
Procedure: (§2) Experiments were performed as previously described (He et al. 2010, He et al. 2014). A bipolar stimulating and recording electrode was inserted into the right amygdala (1.0 mm posterior, 2.9 mm lateral to bregma; 4.6 mm below dura). A skull screw was placed over the left frontal lobe as a ground electrode. After a postoperative recovery period of at least 5 days, animals were connected to a Grass Stimulator and monitored by both video and EEG. The current required to evoke an electrographic seizure (electrographic seizure threshold [EST]) was determined by applying a 1 s train of 1 msec biphasic-rectangular pulses at 60 Hz beginning at 20 μA. Additional stimulations were given in 20 μA increments at 1 min intervals until an electrographic seizure was detected. Animals then received two stimulations per day at the EST, with the behavioral seizure scores classified according to a modification of the Racine scale for mice (Borges et al., 2003; Racine, 1972): 0, normal activity; 1, arrest and rigid posture; 2, head nodding; 3, unilateral forelimb clonus; 4, rearing with bilateral forelimbs clonus; 5, rearing and falling; 6, tonic-clonic seizures with violent running and/or jumping. The criterion for “kindled” was the occurrence of three consecutive seizures of class 4 or greater, with limb clonus/tonus lasting at least 12 s.
(§3) Design of individual experiments is presented in panel A of FIGS. 1-5. All “post-kindling seizures” (see FIG. 1A) were evoked with a stimulation intensity determined by assessing the EST a second time, typically 6 days after evoking the “final kindled seizure” the EST was determined by administering stimulations in 20 μA increments every 1 min, beginning at 20 μA, until an electrographic seizure was evoked.
Prior to each administration, stock 100 mM 1NMPP1 was dissolved in a solubilization buffer containing 0.9% NaCL and 2.5% Tween-20 to a concentration of 1.67 mg/mL and dosed at 16.6 ug/g IP every 12 h for a total of five treatments. Vehicle injection served as a control. […]

TrkB kinase = target: T1, TrkB kinase (Mus musculus, UniProt P15209); conditions: WT mice (Chen et al. 2005, Liu et al. 2013); cited from earlier work
T1 construct: host or cells: wild type (C57/bl6) mice, endogenous TrkB

kindled TrkB^F616A mice [2] = assay: Kindling model, 1NMPP1 treatment initiated after an evoked seizure (chemical-genetic inhibition of TrkB kinase); type: in vivo
From the text: All animal procedures were approved by the Institutional Animal Care and Use Committee (IACUC) at Duke University and conform to the National Institutes of Health and Duke University institutional guidelines for the care and use of experimental animals. Animals were maintained on a 12-hour light/dark cycle with food and water available ad libitum. Wild type (WT) adult (8-12 wk) C57/bl6 male mice were obtained from Charles River. TrkB^F616A mice were originally obtained from Dr. David Ginty (Chen et al. 2005) and backcrossed to the C57/bl6 line for at least seven generations. This knockin mouse harbors a point mutation on the TrkB allele, substituting an alanine for phenylalanine within the ATP binding pocket of the TrkB kinase domain. This mutation renders TrkB protein uniquely susceptible to kinase inhibition by small molecule derivatives of the general kinase inhibitor PP1, including 1-(1,1-dimethylethyl)-3-(1-naphthalenylmethyl)-1H-pyrazolo[3,4-d]pyrimidin-4-amine (1NMPP1). […] Both male and female adult (8-12 wk) homozygous mice were used.
as §1
Experiments were performed as previously described (He et al. 2010, He et al. 2014). A bipolar stimulating and recording electrode was inserted into the right amygdala (1.0 mm posterior, 2.9 mm lateral to bregma; 4.6 mm below dura). A skull screw was placed over the left frontal lobe as a ground electrode. After a postoperative recovery period of at least 5 days, animals were connected to a Grass Stimulator and monitored by both video and EEG. The current required to evoke an electrographic seizure (electrographic seizure threshold [EST]) was determined by applying a 1 s train of 1 msec biphasic-rectangular pulses at 60 Hz beginning at 20 μA. Additional stimulations were given in 20 μA increments at 1 min intervals until an electrographic seizure was detected. […]
Design of individual experiments is presented in panel A of FIGS. 1-5. All “post-kindling seizures” (see FIG. 1A) were evoked with a stimulation intensity determined by assessing the EST a second time, typically 6 days after evoking the “final kindled seizure” the EST was determined by administering stimulations in 20 μA increments every 1 min, beginning at 20 μA, until an electrographic seizure was evoked. […]

kindled mice = assay: Kindling model, carbamazepine treatment after an evoked seizure; type: in vivo; conditions: carbamazepine 20 mg/kg IP at four hour intervals for two days following Post-Kindling Seizure #1
Procedure: as §2, §3
Carbamazepine (Sigma) was dissolved in a solubilization buffer of 2% Tween-80 and 70% propylene glycol at a concentration of 2 mg/mL and administered at a dose of 20 mg/kg, a dose of carbamazepine sufficient to produce therapeutic blood levels (Grabenstatter et al. 2007). Treatments were given every 4 h for two days. […]

[3] = tested on: epileptic animals (KA-SE); assay: Spontaneous recurrent seizures (video-EEG) after kainic acid-induced status epilepticus (KA-SE model of TLE); type: in vivo, mice; conditions: six animals; for SRS during two weeks following cessation of treatment: after carbamazepine 800 mg/kg/day in food pellets for two weeks; for SRS during two weeks on treatment: carbamazepine 800 mg/kg/day in food pellets for two weeks
From the text: Determining whether pY816 may be beneficial in epileptic animals required modification of our study of the kainic acid (KA)-status epilepticus (SE) model. To more closely mimic the clinical scenario in which patients seek medical attention for established TLE, we induced KA-SE and then conducted video-EEG recordings to detect spontaneous recurrent seizures during baseline periods of two to four weeks until they developed TLE prior to treating with pY816 peptide. In contrast to just three days of treatment with pY816 deployed in previous studies, we sought a more prolonged treatment with pY816 for the current experiments, namely two weeks. The intravenous route of administration used for three days in the prior studies was not feasible for two weeks, leading us to ask whether treatment via intraperitoneal route could inhibit activation of PLCγ1. We used the phosphorylation of residue Y783 of PLCγ1 detected on western blot of brain lysates as a surrogate measure of PLCγ1 activation.
Having verified that intraperitoneal administration of pY816 inhibited PLCγ1 activation, we then asked whether treatment with pY816 initiated after onset of epilepsy and continued for two weeks would reduce the severity of epilepsy or even induce a remission. Towards that end, we induced KA-SE but then followed the animals for several weeks until they developed TLE as assessed by detection of SRS in continuous video-EEG recordings. We quantified the number of SRS in each animal by blinded review of video-EEG recordings during three distinct two week epochs (FIG. 8): a) baseline; b) treatment with pY816 (n=9) or Scr control (n=6), 20 mg/kg IP twice daily for two weeks (on Tx); c) following termination of treatment (Post Tx). As noted in FIG. 8, following induction of status epilepticus induced by infusion of kainic acid into amygdala (Gu et al 2015) animals underwent continuous video-EEG recording to detect spontaneous recurrent seizures. Following baseline recording of two weeks, animals were treated with either pY816 or Scr control peptide (20 mg/kg) twice daily for two weeks (Day 15-28). Video-EEG recording continued for two weeks following termination of treatment (Post-treatment).
Results are shown in FIG. 9, where each symbol represents the number of seizures experienced by a given animal during Baseline, Treatment (Tx), or Post-treatment (Post Tx) periods. Horizontal bars designate median. Treatment (Tx) consisted of either pY816 or Scr control given 20 mg/kg twice daily for two weeks. Note that seizure detection was performed by analyses of video-EEG recordings by two blinded investigators.
Antiseizure drugs in current clinical use provide symptomatic relief of seizures in many but not all patients, but seizures typically recur upon cessation of the drug. To verify that similar findings occur in our animal model, we tested the effect of an antiseizure drug in current clinical use in our model (carbamazepine). We infused additional animals with KA and assessed the occurrence of SRS with continuous video-EEG monitoring for several weeks. […] Thus, like TLE in humans, continuous treatment with an antiseizure drug suppresses seizures, yet seizures recur upon discontinuation of treatment.

T1 sequence (P15209 32-821): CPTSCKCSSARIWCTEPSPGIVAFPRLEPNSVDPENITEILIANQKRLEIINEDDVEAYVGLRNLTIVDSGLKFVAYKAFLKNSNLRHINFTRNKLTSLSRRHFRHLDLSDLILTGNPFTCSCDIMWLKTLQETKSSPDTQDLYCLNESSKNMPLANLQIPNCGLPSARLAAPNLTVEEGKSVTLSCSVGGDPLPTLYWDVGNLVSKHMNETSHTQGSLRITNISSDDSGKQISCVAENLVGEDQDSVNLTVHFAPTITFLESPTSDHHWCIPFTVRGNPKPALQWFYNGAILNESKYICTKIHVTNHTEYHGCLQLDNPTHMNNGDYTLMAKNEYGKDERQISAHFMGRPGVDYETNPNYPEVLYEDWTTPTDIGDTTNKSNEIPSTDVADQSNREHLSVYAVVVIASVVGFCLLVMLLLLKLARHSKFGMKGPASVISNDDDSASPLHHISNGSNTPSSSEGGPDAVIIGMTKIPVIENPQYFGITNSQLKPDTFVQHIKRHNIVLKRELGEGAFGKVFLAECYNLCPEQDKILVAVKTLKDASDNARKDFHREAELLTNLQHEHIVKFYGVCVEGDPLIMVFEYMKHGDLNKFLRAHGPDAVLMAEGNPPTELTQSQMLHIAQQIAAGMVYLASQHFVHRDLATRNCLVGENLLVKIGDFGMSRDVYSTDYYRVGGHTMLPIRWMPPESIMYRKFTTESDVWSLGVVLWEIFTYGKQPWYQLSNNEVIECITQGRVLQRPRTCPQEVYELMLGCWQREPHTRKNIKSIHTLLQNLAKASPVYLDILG

| Compound | Duration of electrographic seizure, Post-Kindling Sz #2 (kindled WT mice; Post-Kindling Sz #1 35.1±5.3 s) [s] | Duration of behavioral seizure, Post-Kindling Sz #2 (kindled WT mice; Post-Kindling Sz #1 72.4±10.2 s) [s] | Duration of electrographic seizure versus vehicle (kindled TrkB^F616A mice [1]; 1NMPP1 for two days (IP and drinking water) six days after final kindled seizure) | Duration of behavioral seizure versus vehicle (kindled TrkB^F616A mice [1]; 1NMPP1 for two days) | Seizure class versus vehicle (kindled TrkB^F616A mice [1]; 1NMPP1 for two days) | Detectable effect in WT mice (TrkB kinase) | Duration of electrographic seizure, Post-Kindling Seizure #2 (kindled TrkB^F616A mice [2]; 1NMPP1 16.6 ug/g IP every 12 h, five treatments, plus 25 μM in drinking water, initiated immediately following Post-Kindling Seizure #1, n=16, vehicle 56.6±7.6 s, p<0.01, Final Kindled Sz 43.8±4.5 s) [s] | Duration of behavioral seizure, Post-Kindling Seizure #2 (kindled TrkB^F616A mice [2]; 1NMPP1 16.6 ug/g IP every 12 h, five treatments, plus drinking water, after Post-Kindling Seizure #1, vehicle 139.8±16.5 s, p<0.01) [s] | Behavioral seizure class of Post-Kindling Seizure #2 (kindled TrkB^F616A mice [2]; 1NMPP1 after Post-Kindling Seizure #1, versus vehicle) | Number of animals with subconvulsive (less than Class 4) Post-Kindling Sz #2 (kindled TrkB^F616A mice [2]; 1NMPP1 following Post-Kindling Sz #1, 33 animals received 1NMPP1 or pY816, controls 1 of 28) | Duration of behavioral seizure, Post-Kindling Sz #2, versus vehicle (kindled mice) | Seizure class, Post-Kindling Sz #2, versus vehicle (kindled mice) | Duration of electrographic seizure, Post-Kindling Sz #2, versus vehicle (kindled mice; Sz #2 evoked fourteen days after last dose) | SRS during two weeks following cessation of treatment [3] | SRS during two weeks following cessation of treatment ([3]; listed as Carbamazepine) | SRS during two weeks on treatment [3] | SRS during two weeks on treatment ([3]; listed as Carbamazepine) |
| --- | --- | --- | --- | --- | --- | --- | --- | --- | --- | --- | --- | --- | --- | --- | --- | --- | --- |
| CC(C)(C)n1nc(Cc2cccc3ccccc23)c2c(N)ncnc21 [1NMPP1, 1-(1,1-dimethylethyl)-3-(1-naphthalenylmethyl)-1H-pyrazolo[3,4-d]pyrimidin-4-amine] | 67.4 ± 13.5 | 107.6 ± 10.5 | No differences were detected | No differences were detected | No differences were detected | does not have any detectable effect | 29.2 ± 3.8 | 63.5 ± 10 | nonsignificant trend toward reduction | 4 |  |  |  |  |  |  |  |
| NC(=O)N1c2ccccc2C=Cc2ccccc21 [carbamazepine, Carbamazepine] |  |  |  |  |  |  |  |  |  |  | No differences were detected | No differences were detected | No differences were detected | seizures recurred in each animal | seizures recurred following cessation of treatment in each of the six animals | reduced in each of the six animals | effectively suppressed SRS in all but one animal |
